Assay results taken from ChEMBL document CHEMBL1157764, “Conserved high activity binding peptides are involved in adhesion of two detergent-resistant membrane-associated merozoite proteins to red blood cells during invasion” (J Med Chem, 2010).

Species on record: Homo sapiens
Experiment: Binding affinity to RBC membrane receptor in human RBCs assessed as specific binding activity measured as ratio of specifically bound peptide/added peptide by gamma counter

| Structure (SMILES) | Activity |
| --- | --- |
| CC(C)[C@H](NC(=O)[C@H](Cc1cnc[nH]1)NC(=O)[C@@H](NC(=O)[C@H](CCCCN)NC(=O)[C@H](CCC(=O)O)NC(=O)[C@@H](NC(=O)[C@H](CC(N)=O)NC(=O)[C@H](CC(N)=O)NC(=O)[C@H](CCCNC(=N)N)NC(=O)[C@H](Cc1ccccc1)NC(=O)[C@H](C)NC(=O)[C@H](Cc1cnc[nH]1)NC(=O)[C@@H](NC(=O)[C@@H](NC(=O)[C@H](CO)NC(=O)[C@H](CCC(=O)O)NC(=O)[C@H](CC(N)=O)NC(=O)[C@@H](N)CO)C(C)C)[C@@H](C)O)[C@@H](C)O)[C@@H](C)O)C(=O)N[C@@H](Cc1cnc[nH]1)C(=O)N[C@@H](CCCCN)C(=O)N[C@@H](Cc1ccc(O)cc1)C(=O)O | > 2% |
| CC[C@H](C)[C@H](NC(=O)[C@@H](NC(=O)[C@H](Cc1ccc(O)cc1)NC(=O)[C@H](CCC(=O)O)NC(=O)[C@H](CCCCN)NC(=O)[C@H](CCC(=O)O)NC(=O)[C@H](Cc1ccc(O)cc1)NC(=O)[C@H](CO)NC(=O)[C@H](Cc1ccccc1)NC(=O)[C@H](Cc1ccc(O)cc1)NC(=O)[C@H](CO)NC(=O)[C@@H](NC(=O)[C@H](CCSC)NC(=O)[C@H](Cc1ccc(O)cc1)NC(=O)[C@@H](NC(=O)CNC(=O)[C@H](CCCCN)NC(=O)[C@@H]1CCCN1C(=O)[C@@H](N)Cc1ccccc1)[C@@H](C)O)[C@@H](C)O)C(C)C)C(=O)N[C@@H](CO)C(=O)O | > 2% |
| CC[C@H](C)[C@H](NC(=O)[C@@H]1CCCN1C(=O)[C@H](Cc1ccccc1)NC(=O)[C@H](Cc1cnc[nH]1)NC(=O)[C@H](Cc1ccccc1)NC(=O)[C@H](CCC(N)=O)NC(=O)[C@@H](NC(=O)[C@H](CCC(=O)O)NC(=O)[C@@H](NC(=O)[C@H](Cc1ccc(O)cc1)NC(=O)[C@H](CC(=O)O)NC(=O)[C@H](CCC(=O)O)NC(=O)[C@@H](N)CC(C)C)C(C)C)C(C)C)C(=O)N[C@@H](Cc1ccc(O)cc1)C(=O)N[C@@H](Cc1ccc(O)cc1)C(=O)N[C@H](C(=O)N[C@@H](CCCCN)C(=O)N[C@@H](Cc1ccccc1)C(=O)N[C@@H](CC(C)C)C(=O)N[C@@H](Cc1ccc(O)cc1)C(=O)O)[C@H](C)O | > 2% |
| CC[C@H](C)[C@H](NC(=O)[C@H](C)NC(=O)[C@@H](NC(=O)[C@H](Cc1ccccc1)NC(=O)[C@@H](NC(=O)[C@@H](NC(=O)[C@H](CC(N)=O)NC(=O)[C@@H](C)N)[C@@H](C)CC)[C@@H](C)CC)[C@@H](C)CC)C(=O)N[C@H](C(=O)N[C@@H](CO)C(=O)N[C@H](C(=O)N[C@H](C(=O)N[C@@H](CO)C(=O)N[C@@H](CC(C)C)C(=O)N[C@@H](CO)C(=O)N[C@H](C(=O)N[C@@H](CO)C(=O)N[C@@H](CO)C(=O)N[C@@H](Cc1ccccc1)C(=O)N[C@H](C(=O)N[C@@H](Cc1ccc(O)cc1)C(=O)O)[C@@H](C)CC)[C@@H](C)CC)[C@@H](C)CC)[C@@H](C)CC)[C@@H](C)CC | > 2% |
| CC[C@H](C)[C@H](NC(=O)[C@H](CO)NC(=O)[C@H](CCCNC(=N)N)NC(=O)[C@@H](NC(=O)[C@@H](NC(=O)[C@@H](N)CCC(N)=O)[C@@H](C)O)[C@@H](C)CC)C(=O)N[C@@H](C(=O)N[C@@H](CC(C)C)C(=O)N[C@@H](CC(C)C)C(=O)N[C@@H](CS)C(=O)N[C@@H](CO)C(=O)N[C@@H](CC(N)=O)C(=O)N[C@@H](CC(C)C)C(=O)N[C@@H](Cc1cnc[nH]1)C(=O)N[C@@H](CC(=O)O)C(=O)N[C@@H](Cc1c[nH]c2ccccc12)C(=O)N[C@@H](CCCCN)C(=O)N[C@@H](CC(C)C)C(=O)N[C@@H](Cc1ccccc1)C(=O)N[C@@H](CS)C(=O)N[C@@H](Cc1ccc(O)cc1)C(=O)O)[C@@H](C)CC | > 2% |
| CC[C@H](NC(=O)[C@H](CC(C)C)NC(=O)[C@H](CCCCN)NC(=O)[C@H](CC(N)=O)NC(=O)[C@H](CC(N)=O)NC(=O)[C@H](Cc1ccc(O)cc1)NC(=O)[C@@H](NC(=O)[C@H](Cc1ccc(O)cc1)NC(=O)[C@H](CCCCN)NC(=O)[C@H](Cc1ccc(O)cc1)NC(=O)[C@@H](NC(=O)[C@H](Cc1ccc(O)cc1)NC(=O)[C@@H](NC(=O)[C@H](Cc1ccc(O)cc1)NC(=O)[C@@H](NC(=O)[C@H](CCCCN)NC(=O)[C@H](CC(N)=O)NC(=O)[C@@H](NC(=O)[C@@H](N)[C@@H](C)O)C(C)C)[C@@H](C)CC)[C@@H](C)O)[C@@H](C)O)[C@@H](C)CC)C(=O)N[C@@H](C)C(=O)O | > 2% |

The next lines start with the values.

| Activity | Structure (SMILES) |
| --- | --- |
| > 2% | CC[C@H](C)[C@H](NC(=O)[C@H](CC(=O)O)NC(=O)[C@H](CCCCN)NC(=O)[C@H](CCC(=O)O)NC(=O)[C@H](CC(=O)O)NC(=O)[C@H](CCC(N)=O)NC(=O)[C@@H]1CCCN1C(=O)[C@H](NC(=O)[C@@H](NC(=O)[C@H](CCCCN)NC(=O)[C@H](CC(N)=O)NC(=O)[C@H](NC(=O)[C@H](CCSC)NC(=O)[C@@H](NC(=O)[C@@H](NC(=O)[C@H](CCC(=O)O)NC(=O)[C@H](CCC(N)=O)NC(=O)[C@@H](N)CC(=O)O)[C@@H](C)CC)[C@@H](C)O)[C@@H](C)CC)[C@H](C)O)[C@@H](C)CC)C(=O)N[C@@H](CC(C)C)C(=O)N[C@@H](Cc1ccccc1)C(=O)N[C@@H](Cc1ccc(O)cc1)C(=O)O |
| > 2% | CC[C@H](C)[C@H](NC(=O)[C@H](CC(=O)O)NC(=O)[C@H](CCCCN)NC(=O)[C@H](CCCNC(=N)N)NC(=O)[C@H](Cc1ccccc1)NC(=O)[C@H](CCCNC(=N)N)NC(=O)[C@@H](NC(=O)[C@@H](NC(=O)[C@@H]1CCCN1C(=O)[C@H](CC(C)C)NC(=O)CN)[C@H](C)O)[C@@H](C)CC)C(=O)N[C@@H](CO)C(=O)N[C@H](C(=O)N[C@@H](CCC(=O)O)C(=O)N[C@@H](CC(N)=O)C(=O)N[C@@H](CC(C)C)C(=O)N[C@H](C(=O)N[C@@H](Cc1ccc(O)cc1)C(=O)N[C@@H](CC(C)C)C(=O)N[C@@H](CC(N)=O)C(=O)O)[C@@H](C)O)C(C)C |
| > 2% | CC[C@H](C)[C@H](NC(=O)[C@H](CCCCN)NC(=O)[C@@H](NC(=O)[C@H](Cc1ccc(O)cc1)NC(=O)CNC(=O)[C@H](CCC(=O)O)NC(=O)[C@H](CC(=O)O)NC(=O)[C@H](CO)NC(=O)[C@H](Cc1ccc(O)cc1)NC(=O)[C@H](CC(C)C)NC(=O)[C@H](CC(N)=O)NC(=O)[C@H](CCSC)NC(=O)[C@@H](NC(=O)[C@H](CCC(C)=O)NC(=O)[C@H](CC(N)=O)NC(=O)[C@H](CCCCN)NC(=O)[C@@H](N)Cc1c[nH]c2ccccc12)C(C)C)[C@@H](C)O)C(=O)N[C@@H](CC(N)=O)C(=O)N[C@H](C(=O)N[C@@H](CC(C)C)C(=O)O)[C@@H](C)O |
| > 2% | CC[C@H](C)[C@H](NC(=O)[C@H](CCCCN)NC(=O)[C@H](CCCNC(=N)N)NC(=O)[C@@H]1CCCN1C(=O)[C@@H](NC(=O)[C@@H](NC(=O)[C@H](CCCCN)NC(=O)[C@@H](NC(=O)[C@H](CCCCN)NC(=O)[C@@H](NC(=O)[C@@H](NC(=O)[C@@H](N)Cc1ccc(O)cc1)C(C)C)[C@@H](C)CC)[C@@H](C)CC)[C@@H](C)O)C(C)C)C(=O)N[C@@H](CCC(N)=O)C(=O)N[C@@H](CS)C(=O)N[C@@H](CCC(=O)O)C(=O)N[C@@H](CC(C)C)C(=O)N[C@@H](CC(N)=O)C(=O)N[C@H](C(=O)N[C@@H](CC(N)=O)C(=O)N[C@@H](CC(=O)O)C(=O)O)[C@@H](C)O |
| > 2% | CC[C@H](C)[C@H](NC(=O)[C@H](Cc1ccc(O)cc1)NC(=O)[C@@H](N)CC(N)=O)C(=O)N[C@@H](CCC(=O)O)C(=O)N[C@@H](CCC(=O)O)C(=O)N1CCC[C@H]1C(=O)N[C@@H](Cc1ccccc1)C(=O)N[C@@H](CO)C(=O)N[C@H](C(=O)N[C@H](C(=O)N[C@@H](Cc1ccccc1)C(=O)N[C@H](C(=O)N[C@H](C(=O)N[C@@H](CC(C)C)C(=O)N[C@@H](CCC(N)=O)C(=O)N[C@H](C(=O)N[C@@H](CCC(N)=O)C(=O)N[C@@H](CCSC)C(=O)N[C@@H](CC(N)=O)C(=O)O)[C@@H](C)O)[C@@H](C)CC)[C@@H](C)O)[C@@H](C)O)[C@@H](C)O |
